Experimental data published in patent publication US8354403B2, “Pyrrolidine derived beta 3 adrenergic receptor agonists” (Merck Sharp & Dohme Corp., priority 2009, dated 2013).
Where a name gives a salt, the structure may show the parent alone. Read-outs that look alike come from different tables or passages of the source.

Molecular target: T1, human β3 adrenergic receptor (Homo sapiens, UniProt P13945)
T1 construct: expressed in transfected cells; host or cells: Chinese hamster ovary (CHO) cells, stably transfected
T1 sequence (P13945 whole entry): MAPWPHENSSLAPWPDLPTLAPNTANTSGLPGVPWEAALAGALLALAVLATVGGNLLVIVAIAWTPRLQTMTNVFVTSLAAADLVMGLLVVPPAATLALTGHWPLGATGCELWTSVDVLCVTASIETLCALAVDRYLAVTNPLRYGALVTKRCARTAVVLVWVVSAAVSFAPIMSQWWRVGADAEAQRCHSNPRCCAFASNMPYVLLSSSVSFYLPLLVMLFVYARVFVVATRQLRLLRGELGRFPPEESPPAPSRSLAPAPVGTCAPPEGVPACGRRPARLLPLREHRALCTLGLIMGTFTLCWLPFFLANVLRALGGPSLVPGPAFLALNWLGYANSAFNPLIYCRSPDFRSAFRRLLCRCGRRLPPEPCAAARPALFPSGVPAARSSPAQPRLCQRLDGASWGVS
Assay: Beta-3 agonist in vitro functional assay: cAMP production (LANCE TR-FRET) in CHO cells stably transfected with the cloned β3 receptor
Format: cell-based
In short: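 CHO cells stably expressing the cloned receptor, in HEPES-buffered HBSS with BSA and 0.6 mM IBMX, 6,000 cells/well, exposed to compound for 30 min at RT. cAMP read by LANCE TR-FRET against a cAMP standard curve. Isoproterenol defines maximal stimulation.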

[1] = Table 9, Beta-3 agonist in vitro functional assay, read-out: Human β3 agonist functional activity
[2] = Table 10, Beta-3 agonist in vitro functional assay, read-out: Human β3 agonist functional activity

Row | SMILES | EC50 [2] [nM] | further results
1 | Cc1noc(C(C)N2CCN(C(=O)c3ccc(C[C@@H]4CC[C@H]([C@H](O)c5ccccc5)N4)cc3)CC2)n1 (some centres unmarked) [Example 422] | – | EC50 [1]: 10 to 99.9 nM
2 | CC(c1nn[nH]n1)N1CCN(C(=O)c2ccc(C[C@@H]3CC[C@H]([C@H](O)c4ccccc4)N3)cc2)CC1 (some centres unmarked) [Example 423] | – | EC50 [1]: 10 to 99.9 nM
3 | Cc1nnc(C(C)N2CCN(C(=O)c3ccc(C[C@@H]4CC[C@H]([C@H](O)c5ccccc5)N4)cc3)CC2)o1 (some centres unmarked) [Example 424] | – | EC50 [1]: 100 to 999 nM
4 | CC(c1ncccc1F)N1CCN(C(=O)c2ccc(C[C@@H]3CC[C@H]([C@H](O)c4ccccc4)N3)cc2)CC1 (some centres unmarked) [Example 425] | – | EC50 [1]: 10 to 99.9 nM
5 | O=C(c1ccc(C[C@@H]2CC[C@H]([C@H](O)c3ccccc3)N2)cc1)N1CCN(Cc2cnccn2)CC1 [Example 426] | – | EC50 [1]: 10 to 99.9 nM
6 | O=C(c1ccc(C[C@@H]2CC[C@H]([C@H](O)c3ccccc3)N2)cc1)N1CCN(Cc2ccncn2)CC1 [Example 427] | – | EC50 [1]: 10 to 99.9 nM
7 | CC(c1cnccn1)N1CCN(C(=O)c2ccc(C[C@@H]3CC[C@H]([C@H](O)c4ccccc4)N3)cc2)CC1 (some centres unmarked) [Example 428] | – | EC50 [1]: 10 to 99.9 nM
8 | O=C(c1ccc(C[C@@H]2CC[C@H]([C@H](O)c3ccccc3)N2)cc1)N1CCN(Cc2nccc3ccccc23)CC1 [Example 429] | – | EC50 [1]: 10 to 99.9 nM
9 | CC(c1ccccn1)N1CCN(C(=O)c2ccc(CC3CCC(C(O)c4ccccc4)N3)cc2)CC1 (centres unmarked) [Example 430] | – | EC50 [1]: 1 to 9.9 nM
10 | C[C@@H](c1ccccn1)N1CCN(C(=O)c2ccc(C[C@@H]3CC[C@H]([C@H](O)c4ccccc4)N3)cc2)CC1 [Example 431] | – | EC50 [1]: 10 to 99.9 nM
11 | CC(C(=O)N1CCC(F)(F)C1)N1CCN(C(=O)c2ccc(C[C@@H]3CC[C@H]([C@H](O)c4ccccc4)N3)cc2)CC1 (stereo partly drawn) [Example 432, (R)-{(2R,5S)-5-[4-({4-{2-(3,3,-Difluoropyrrolidin-1-yl)-1-methyl-2-oxoethyl]piperazine-1-yl}carbonyl)benzyl}pyrrolidin-2-yl)(phenyl)methanol, TFA salt] | – | EC50 (given as a range, cAMP, CHO cells, read-out: human β3 functional activity): 10 to 99.9 nM
12 | CC(C(=O)O)N1CCN(C(=O)c2ccc(C[C@@H]3CC[C@H]([C@H](O)c4ccccc4)N3)cc2)CC1 (some centres unmarked) [Example 433] | 1 to 9.9 | –
13 | COC(=O)C(C)N1CCN(C(=O)c2ccc(C[C@@H]3CC[C@H]([C@H](O)c4ccccc4)N3)cc2)CC1 (some centres unmarked) [Example 434] | 1 to 9.9 | –
14 | CNC(=O)C(C)N1CCN(C(=O)c2ccc(C[C@@H]3CC[C@H]([C@H](O)c4ccccc4)N3)cc2)CC1 (some centres unmarked) [Example 435] | 10 to 99.9 | –
15 | CCNC(=O)C(C)N1CCN(C(=O)c2ccc(C[C@@H]3CC[C@H]([C@H](O)c4ccccc4)N3)cc2)CC1 (some centres unmarked) [Example 436] | 100 to 999 | –
16 | CC(C)NC(=O)C(C)N1CCN(C(=O)c2ccc(C[C@@H]3CC[C@H]([C@H](O)c4ccccc4)N3)cc2)CC1 (some centres unmarked) [Example 437] | 100 to 999 | –
17 | CC(C)CCNC(=O)C(C)N1CCN(C(=O)c2ccc(C[C@@H]3CC[C@H]([C@H](O)c4ccccc4)N3)cc2)CC1 (some centres unmarked) [Example 438] | 100 to 999 | –
18 | CCC(C)(C)NC(=O)C(C)N1CCN(C(=O)c2ccc(C[C@@H]3CC[C@H]([C@H](O)c4ccccc4)N3)cc2)CC1 (some centres unmarked) [Example 439] | 1 to 9.9 | –
19 | CC[C@@H](C)NC(=O)C(C)N1CCN(C(=O)c2ccc(C[C@@H]3CC[C@H]([C@H](O)c4ccccc4)N3)cc2)CC1 (some centres unmarked) [Example 440] | 10 to 99.9 | –
20 | CC(C)[C@@H](C)NC(=O)C(C)N1CCN(C(=O)c2ccc(C[C@@H]3CC[C@H]([C@H](O)c4ccccc4)N3)cc2)CC1 (some centres unmarked) [Example 441] | 10 to 99.9 | –
21 | COCCNC(=O)C(C)N1CCN(C(=O)c2ccc(C[C@@H]3CC[C@H]([C@H](O)c4ccccc4)N3)cc2)CC1 (some centres unmarked) [Example 442] | 100 to 999 | –
22 | CC(C(=O)NCC(C)(C)O)N1CCN(C(=O)c2ccc(C[C@@H]3CC[C@H]([C@H](O)c4ccccc4)N3)cc2)CC1 (some centres unmarked) [Example 443] | 10 to 99.9 | –

Row | SMILES | EC50 [2] [nM] | further results
23 | CC(C(=O)NC(C)(C)CO)N1CCN(C(=O)c2ccc(C[C@@H]3CC[C@H]([C@H](O)c4ccccc4)N3)cc2)CC1 (some centres unmarked) [Example 444] | 100 to 999 | –
24 | CC(C(=O)NCC(N)=O)N1CCN(C(=O)c2ccc(C[C@@H]3CC[C@H]([C@H](O)c4ccccc4)N3)cc2)CC1 (some centres unmarked) [Example 445] | 100 to 999 | –
25 | COC[C@H](C)NC(=O)C(C)N1CCN(C(=O)c2ccc(C[C@@H]3CC[C@H]([C@H](O)c4ccccc4)N3)cc2)CC1 (some centres unmarked) [Example 446] | 10 to 99.9 | –
26 | CC(C(=O)NCC1CC1)N1CCN(C(=O)c2ccc(C[C@@H]3CC[C@H]([C@H](O)c4ccccc4)N3)cc2)CC1 (some centres unmarked) [Example 447] | 10 to 99.9 | –
27 | CC(C(=O)NCCC1CC1)N1CCN(C(=O)c2ccc(C[C@@H]3CC[C@H]([C@H](O)c4ccccc4)N3)cc2)CC1 (some centres unmarked) [Example 448] | 10 to 99.9 | –
28 | CC(C(=O)NCC1(O)CC1)N1CCN(C(=O)c2ccc(C[C@@H]3CC[C@H]([C@H](O)c4ccccc4)N3)cc2)CC1 (some centres unmarked) [Example 449] | 10 to 99.9 | –
29 | CC(C(=O)NCC1CC1(C)C)N1CCN(C(=O)c2ccc(C[C@@H]3CC[C@H]([C@H](O)c4ccccc4)N3)cc2)CC1 (some centres unmarked) [Example 450] | 10 to 99.9 | –
30 | CC(C(=O)NC(C1CC1)C1CC1)N1CCN(C(=O)c2ccc(C[C@@H]3CC[C@H]([C@H](O)c4ccccc4)N3)cc2)CC1 (some centres unmarked) [Example 451] | 10 to 99.9 | –
31 | CC(C(=O)NCC1CCC1)N1CCN(C(=O)c2ccc(C[C@@H]3CC[C@H]([C@H](O)c4ccccc4)N3)cc2)CC1 (some centres unmarked) [Example 452] | 1 to 9.9 | –
32 | CC(C(=O)NCC1(C)CCC1)N1CCN(C(=O)c2ccc(C[C@@H]3CC[C@H]([C@H](O)c4ccccc4)N3)cc2)CC1 (some centres unmarked) [Example 453] | 1 to 9.9 | –
33 | CC(C)C1CC(CNC(=O)C(C)N2CCN(C(=O)c3ccc(C[C@@H]4CC[C@H]([C@H](O)c5ccccc5)N4)cc3)CC2)C1 (some centres unmarked) [Example 454] | 10 to 99.9 | –
34 | CC(C(=O)NCC1CCCO1)N1CCN(C(=O)c2ccc(C[C@@H]3CC[C@H]([C@H](O)c4ccccc4)N3)cc2)CC1 (some centres unmarked) [Example 455] | 10 to 99.9 | –
35 | CC(C(=O)NC1CCCC1)N1CCN(C(=O)c2ccc(C[C@@H]3CC[C@H]([C@H](O)c4ccccc4)N3)cc2)CC1 (some centres unmarked) [Example 456] | 10 to 99.9 | –
36 | CC(C(=O)NC1CCOC1)N1CCN(C(=O)c2ccc(C[C@@H]3CC[C@H]([C@H](O)c4ccccc4)N3)cc2)CC1 (some centres unmarked) [Example 457] | 10 to 99.9 | –
37 | CC(C(=O)NC1CCNC1=O)N1CCN(C(=O)c2ccc(C[C@@H]3CC[C@H]([C@H](O)c4ccccc4)N3)cc2)CC1 (some centres unmarked) [Example 458] | 100 to 999 | –
38 | CC(C(=O)NC1CCN(C)C1=O)N1CCN(C(=O)c2ccc(C[C@@H]3CC[C@H]([C@H](O)c4ccccc4)N3)cc2)CC1 (some centres unmarked) [Example 459] | < 1 | –
39 | CC(C(=O)NCC(=O)N1CCCC1)N1CCN(C(=O)c2ccc(C[C@@H]3CC[C@H]([C@H](O)c4ccccc4)N3)cc2)CC1 (some centres unmarked) [Example 460] | 10 to 99.9 | –
40 | CC(C(=O)NCc1cnoc1)N1CCN(C(=O)c2ccc(C[C@@H]3CC[C@H]([C@H](O)c4ccccc4)N3)cc2)CC1 (some centres unmarked) [Example 461] | 10 to 99.9 | –
41 | CC(C(=O)NCc1ncco1)N1CCN(C(=O)c2ccc(C[C@@H]3CC[C@H]([C@H](O)c4ccccc4)N3)cc2)CC1 (some centres unmarked) [Example 462] | 10 to 99.9 | –
42 | CC(C(=O)NCc1nccn1C)N1CCN(C(=O)c2ccc(C[C@@H]3CC[C@H]([C@H](O)c4ccccc4)N3)cc2)CC1 (some centres unmarked) [Example 463] | 100 to 999 | –
43 | Cc1c(CNC(=O)C(C)N2CCN(C(=O)c3ccc(C[C@@H]4CC[C@H]([C@H](O)c5ccccc5)N4)cc3)CC2)cnn1C (some centres unmarked) [Example 464] | 10 to 99.9 | –
44 | CCc1noc(CNC(=O)C(C)N2CCN(C(=O)c3ccc(C[C@@H]4CC[C@H]([C@H](O)c5ccccc5)N4)cc3)CC2)n1 (some centres unmarked) [Example 465] | 10 to 99.9 | –
